The values below are quoted from earlier work in patent US20040197429A1, “Selective COX-2 inhibition from plant extracts” (Pharmacia Corporation, priority 2000, published 2004).

The structures appear in SMILES notation.

The data set concerns COX-1 and COX-2. Conditions: background.

With `CC(=O)Oc1ccccc1C(=O)O` [aspirin], the “effectiveness inactivating COX-1 as opposed to COX-2” value was 10 to 100 times.
